Assay results published in patent US4273940A, “Bis-(2-benzylaminoethyl)-disulfides” (Abbott Laboratories, priority 1980, dated 1981).
Where a name gives a salt, the structure may show the parent alone. Read-outs that look alike come from different tables or passages of the source.

How the values were obtained:
human neutrophils = test: inhibition of neutrophil locomotion (intrinsic and chemotactic), in vitro agarose test by the method of Nelson et al.; type: cell-based; details: 2 hours at 37° C., duplicate, four donors; for inhibition at 100 µM: 10^-4 molar; for inhibition at 10 µM: 10^-5 molar
Experimental: The compounds of this invention show marked anti-inflammatory properties as intraperitoneal or oral doses of 25-200 mg./kg. and at intravenous doses of 10 mg./kg. and above. […] The current compounds also are inhibitors of chemotaxis of human neutrophils at molar concentrations of 0.00001-0.0005, causing 50-100% inhibition of intrinsic and chemotactic locomotion of the cells, as established by the method of Nelson et al. in J. Immunol. 115, 1650 (1975).
By carrying out the in vitro test of Nelson et al. referred to above, the neutrophil locomotor response modification caused by the above compounds was established. For this purpose, the compounds were dissolved in both agarose media and the media suspending the cells. The effects of the compounds were determined by comparing te chemotactic and intrinsic locomotion of the cells, both with and without the test compounds after 2 hours of incubation at 37° C. All compounds were evaluated in duplicate against the cells which were from four individual donors.

[1] = system: Type III reactions (reverse passive Arthus lesion); test: reverse passive Arthus assay (Carter and Krause); Type III reaction; type: in vivo; details: 50 mg./kg. intraperitoneal, group of four animals
Experimental: Upon intraperitoneal administration to a group of four animals at a dose of 50 mg./kg., the lesion area is inhibited an average of 49% by the compound of Example 1 and 47% by the compound of Example 5.

[2] = system: carrageenin induced hind paw edema; test: modification of the carrageenin induced hind paw edema assay (Winter et al.); anti-inflammatory activity; type: in vivo; details: for reduction of carrageenin induced swelling (volume): after 3 hours
[3] = read-out: % Inhibition of Locomotion, Chemotactic
[4] = read-out: % Inhibition of Locomotion, Intrinsic

| Compound | inhibition at 100 µM (human neutrophils; [3]) [%] | inhibition at 100 µM (human neutrophils; [4]) [%] | inhibition at 10 µM (human neutrophils; [3]) [%] | inhibition at 10 µM (human neutrophils; [4]) [%] | inhibition of lesion area (average) [1] [%] | reduction of carrageenin induced swelling (volume) ([2]; 25 mg./kg. intraperitoneal) [%] | reduction of carrageenin induced swelling (volume) ([2]; 50 mg./kg. intraperitoneal) [%] | reduction of carrageenin induced swelling (volume), acetylsalicylic acid ([2]; 50 mg/kg., corresponding measurement (3 hours)) [%] |
| --- | --- | --- | --- | --- | --- | --- | --- | --- |
| Cc1cc(C(C)(C)C)cc(CNCCSSCCNCc2cc(C(C)(C)C)cc(C)c2O)c1O [Example 4, bis(2-hydroxy-3-methyl-5-t-butylbenzylaminoethyl)disulfide dihydrochloride] | 100 | 95 | 48 | 50 | – | – | – | – |
| CC(C)(C)c1cc(Cl)c(O)c(CNCCSSCCNCc2cc(C(C)(C)C)cc(Cl)c2O)c1 [Example 5, bis(2-hydroxy-3-chloro-5-t-butylbenzylaminoethyl)disulfide] | 100 | 85 | 46 | 24 | 47 | – | – | – |
| Clc1cccc(Cl)c1CNCCSSCCNCc1c(Cl)cccc1Cl [Example 6, bis(2,6-dichlorobenzylaminoethyl)disulfide hydrochloride] | 85 | 74 | – | – | – | – | – | – |
| COc1ccccc1CNCCSSCCNCc1ccccc1OC.Cl.Cl [Example 1, bis(2-methoxybenzylaminoethyl)disulfide dihydrochloride] | 100 | 100 | 93 | 94 | 49 | 14.6 | 29.9 | – |
| CC(=O)Oc1ccccc1C(=O)O [acetylsalicylic acid, reference compound] | – | – | – | – | – | – | – | 15.4 |
| Oc1ccccc1CNCCSSCCNCc1ccccc1O [Example 2, bis(2-hydroxybenzylaminoethyl)disulfide] | 100 | 100 | – | – | – | – | – | – |
